Results on six substances are retold here after patent US8003759B2, “Protein kinase-inducible domains” (University of Delaware, priority 2006, dated 2011).

The nature of test [1]: Tb^3+ binding of pKID peptides by fluorescence titration (dissociation constant determination). Particulars: for Kd: 5 mM HEPES (pH 7.8), 100 mM NaCl, read-out: Kd of peptide-Tb^3+ complex. The protocol: Fluorescence spectra were collected on a Photon Technology International fluorescence spectrometer model QM-3/2003 with a CW source and a Hamamatsu R928PMT. All experiments were conducted with an excitation wavelength of 280 nm. 6 nm excitation and emission slit widths were used unless otherwise indicated. All spectra were acquired at room temperature, collecting data every 1 nm with a scan rate of 1 nm per second. At least 3 independent binding titrations were conducted for each peptide. All spectra are uncorrected and have not been normalized, and only representative (median), non-averaged spectra are shown, unless otherwise indicated. All fluorescence experiments were conducted using a 495 nm highpass filter (model 495FG03-25 AM-53074; Andover Corporation, Andover, N.H.) on the emission monochromator.
Peptide solutions were prepared by dilution of stock solutions into 5 mM HEPES buffer (pH 7.8) with 100 mM NaCl. Spectra were acquired in 10 mm quartz fluorescence cells (Sterna). Tb^3+ titrations were conducted by dilution of a Tb^3+ solution into a peptide solution as described above. Each individual emission spectrum represents an independently prepared solution of peptide and metal. The Tb^3+ emission band at 544 nm was used to evaluate metal binding.
To determine dissociation constants for Tb^3+-peptide complexes, titrations were conducted in solutions of 5 mM HEPES (pH 7.8) and 100 mM NaCl, with 10 nm emission and excitation slit widths. All fluorescence experiments were conducted using a 495 nm highpass filter (model 495FG03-25 AM-53074; Andover Corporation, Andover, N.H.) on the emission monochromator. All TbCl3 solutions were standardized by titration with a standard solution of EDTA (1 mM) in the presence of xylenol orange indicator (10 μM) and sodium acetate buffer (pH 6.0, 10 mM). 500 μL of the 1 mM Tb^3+ stock solution was diluted to 1 mL to make a 0.5 mM solution and EDTA (1 mM) was added (approximately 500 μL) until the end point was reached (see FIGS. 11-13). The solutions were prepared as serial dilutions of Tb^3+, from 3.3 μM to 450 μM Tb^3+, and the fluorescence emission scan of each solution was acquired. Data points at the emission maximum of 544 nm were plotted against Tb^3+ concentration to calculate the final Kd. Data points indicate the average of at least three independent titrations. Error bars indicate standard error. The data were fit to equation (1) using a non-linear least squares fitting algorithm (KaleidaGraph version 3.6, Synergy Software), where Q fluorescence, Qo=fluorescence of the apopeptide, Qc=fluorescence of peptide-metal complex, Mt=total metal concentration, Kd=dissociation constant and Pt=total peptide concentration (10 μM). Dissociation constants in the presence of 2 mM Mg^2+ or 100 μM Ca^2+ were measured for pKID-PKA peptides to study the effect of these metals on Tb^3+-peptide complex formation.
Dissociation constants of the non-phosphorylated peptides were calculated by defining the maximum fluorescence of the non-phosphorylated peptide-Tb^3+ complex as equal to the maximum fluorescence of the phosphorylated peptide-Tb^3+ complex: Qc (non-phosphorylated peptide)=Qc (phosphorylated peptide), with Qc=the calculated fluorescence of the fully bonded phosphopeptide-Tb^3+ complex. Although the assumption of similar maximum fluorescence intensities of the Tb^3+ complexes of the non-phosphorylated and phosphorylated peptides may not be valid, it provides a measure of relative Tb^3+ fluorescence of the phosphorylated and non-phosphorylated peptides.

The nature of test [2]: Ho^3+ competition experiment (reduction of Tb^3+ luminescence). The class given is binding. Particulars: 10 μM phosphorylated peptide, 10 μM Tb^3+, increasing Ho^3+. As to the method:
Competition experiments were used to confirm site-specific lanthanide binding and to address whether pKID peptides are a general phosphorylation-dependent lanthanide-binding motif. In order to determine whether Tb^3+ binding is site-specific, competition experiments were performed with Ho^3+. Ho^3+ solutions were prepared from hydrates of the chloride salts in ultrapure water. The phosphorylated pKID-PKC peptide was tested for Ho^3+ binding by addition of aliquots of Ho^3+ to a solution containing 10 μM phosphorylated pKID-PKC and 10 μM Tb^3+. pKID-Tb^3+-Ho^3+ solutions were allowed to equilibrate for 2 minutes. Fluorescence experiments were conducted using a 495 nm highpass filter (model 495FG03-25 AM-53074; Andover Corporation, Andover, N.H.) on the emission monochromator and 8 nm slit widths.

Test [3] concerns the target T1, Protein Kinase A (PKA) (Mus musculus, UniProt P05132).
T1 construct: purchased New England Biolabs
The experiment in a line: Phosphorylation of pKID peptides by protein kinase A (HPLC, fluorescence, ESI-MS). Type of test: biochemical. Particulars: 200 μM peptide, 2.5 units PKA, 35° C., 12 hrs. As to the method: Kinase specificity for protein kinase-inducible domain peptides was examined by incubation of protein kinase A with pKID-PKA, pKID-PKC and pKID-Erk. Experiments were conducted with 2.4 mM ATP (3 μL of freshly prepared 20 mM ATP), PKA buffer (3 μL of 10× buffer), and peptide (200 μM) with water in 25 μL final reaction volume. After incubation at 35° C. for 5 min, PKA enzyme solution (1 μL, 2.5 units) was added to start the reaction. After 12-14 hrs at 35° C., the reaction mixture was analyzed by fluorescence, HPLC and ESI-MS. The kinase reaction mixtures were analyzed by fluorescence by diluting the reaction mixture with 1 mL of a solution containing 5 mM HEPES buffer (pH 7.8), 100 mM NaCl, and 50 μM Tb^3+, and the resulting solution analyzed by fluorescence. Fluorescence experiments were conducted with 10 nm slit widths and a 495 nm highpass filter on the emission monochromator. Fluorescence data (FIG. 7) represent the average of four independent trials. Error bars indicate standard error.

Test [4] has as its system endogenous kinase present within the HeLa extracts. In words: Phosphorylation of pKID-PKA in HeLa nuclear extract in the absence of added kinase. The class given is biochemical. Particulars: no added kinase. The protocol: Phosphorylation of pKID-PKA in HeLa nuclear extract in the absence of added kinase was also examined. Reaction mixtures were prepared as described previously to a final volume of 25 μL, but protein kinase A was not added. After addition of ATP and incubation for the indicated times, the reaction mixtures (25 μL, 500 μM peptide) were diluted with 200 μL of a solution containing […] buffer (pH 7.8), 100 mM NaCl and 100 μM Tb^3+ and analyzed by fluorescence as described previously. pKID-PKA was phosphorylated by endogenous kinase present within the HeLa extracts to approximately 10% conversion as determined by fluorescence and HPLC (see FIG. 5, right).

For test [5], the target named is T1, Protein Kinase A (PKA). In words: Phosphorylation of pKID-PKA by protein kinase A in HeLa nuclear extract. Type of test: biochemical. Particulars: HeLa nuclear extract with added PKA, 3 h incubation.

“Also recorded” adds a separate entry of the source. Read-outs that look alike come from different tables or passages of the source. A value given as a limit tells only on which side of the number the result lay.

In the case of “Ac-DKNADGWIDAApSPA-NH2 (DKNADGWIDAASPA; HELM PEPTIDE1{[ac].D.K.N.A.D.G.W.I.D.A.A.[O=C([C@H](COP(=O)(O)O)N[*:1])[*:2]].P.A.[am]}$$$$V2.0; SMILES CC[C@H](C)[C@H](NC(=O)[C@H](Cc1c[nH]c2ccccc12)NC(=O)CNC(=O)[C@H](CC(=O)O)NC(=O)[C@H](C)NC(=O)[C@H](CC(N)=O)NC(=O)[C@H](CCCCN)NC(=O)[C@H](CC(=O)O)NC(C)=O)C(=O)N[C@@H](CC(=O)O)C(=O)N[C@@H](C)C(=O)N[C@@H](C)C(=O)N[C@@H](COP(=O)(O)O)C(=O)N1CCC[C@H]1C(=O)N[C@@H](C)C(N)=O) [phosphorylated pKID-Erk]”, the equilibrium dissociation constant (Kd) (as a rule, the free concentration of one partner at which half of the binding sites on the other are occupied at equilibrium, for simple one-to-one binding) in test [1] (10 μM peptide) amounted to 124 µM.

Consider “Ac-DKNADGWIDAApSLK-NH2 (DKNADGWIDAASLK; HELM PEPTIDE1{[ac].D.K.N.A.D.G.W.I.D.A.A.[O=C([C@H](COP(=O)(O)O)N[*:1])[*:2]].L.K.[am]}$$$$V2.0; SMILES CC[C@H](C)[C@H](NC(=O)[C@H](Cc1c[nH]c2ccccc12)NC(=O)CNC(=O)[C@H](CC(=O)O)NC(=O)[C@H](C)NC(=O)[C@H](CC(N)=O)NC(=O)[C@H](CCCCN)NC(=O)[C@H](CC(=O)O)NC(C)=O)C(=O)N[C@@H](CC(=O)O)C(=O)N[C@@H](C)C(=O)N[C@@H](C)C(=O)N[C@@H](COP(=O)(O)O)C(=O)N[C@@H](CC(C)C)C(=O)N[C@@H](CCCCN)C(N)=O) [phosphorylated pKID-PKC]”, for which, in test [1] (10 μM peptide), the Kd is 216 µM.

Turning to “Ac-DKNADGWIDRApSLA-NH2 (DKNADGWIDRASLA; HELM PEPTIDE1{[ac].D.K.N.A.D.G.W.I.D.R.A.[O=C([C@H](COP(=O)(O)O)N[*:1])[*:2]].L.A.[am]}$$$$V2.0; SMILES CC[C@H](C)[C@H](NC(=O)[C@H](Cc1c[nH]c2ccccc12)NC(=O)CNC(=O)[C@H](CC(=O)O)NC(=O)[C@H](C)NC(=O)[C@H](CC(N)=O)NC(=O)[C@H](CCCCN)NC(=O)[C@H](CC(=O)O)NC(C)=O)C(=O)N[C@@H](CC(=O)O)C(=O)N[C@@H](CCCNC(=N)N)C(=O)N[C@@H](C)C(=O)N[C@@H](COP(=O)(O)O)C(=O)N[C@@H](CC(C)C)C(=O)N[C@@H](C)C(N)=O) [phosphorylated pKID-PKA]”, the “change of dissociation constant of phosphopeptide-Tb^3+ complex in the presence of Ca^2+” value in test [1] (100 μM Ca^2+) is on record as “did not significantly change”. For the same substance, the dissociation constant Kd in test [1] (10 μM peptide) was 220 µM; in test [1] (+ 100 μM Ca^2+), 228 µM; in test [1] (+ 2 mM Mg^2+), 174 µM.

Take “DKNADGWIDAASLK [non-phosphorylated pKID-PKC, Ac-DKNADGWIDAASLK-NH2, EF hand domain with Glu12 replaced by serine and a protein kinase C recognition domain]”: the “Ho^3+ binding observed via Tb^3+ luminescence” value in test [2] is “loss of Tb^3+ luminescence”. The “phosphorylation by PKA (result in words), determined by HPLC” value at Protein Kinase A (PKA) [3] is listed as “no evidence of phosphorylation; also recorded: not phosphorylated”. Also, the Kd in test [1] (10 μM peptide) was greater than 6000 µM.

Take “DKNADGWIDAASPA [non-phosphorylated pKID-Erk, Ac-DKNADGWIDAASPA-NH2, EF hand domain with Glu12 replaced by serine and an Erk recognition domain]”: the “phosphorylation by PKA (result in words), determined by HPLC” value on Protein Kinase A (PKA) [3] is given as “no evidence of phosphorylation; also recorded: not phosphorylated”. The Kd in test [1] (10 μM peptide) is greater than 3000 µM.

For the substance “DKNADGWIDRASLA [non-phosphorylated pKID-PKA, Ac-DKNADGWIDRASLA-NH2, EF hand domain with Glu12 replaced by serine and a protein kinase A recognition domain]”, the “phosphorylation conversion determined by fluorescence and HPLC” value in test [4] is “approximately 10%”. For the same substance, the “conversion to phosphorylated peptide by PKA, determined by HPLC” value at Protein Kinase A (PKA) [3] is on record as greater than 95%. For the same substance, on Protein Kinase A (PKA) [5], the “phosphorylation conversion measured by HPLC” value is given as 75%. Further, in test [1] (2 mM Mg^2+), the “Tb^3+ binding in the presence of Mg^2+” value is on record as “not observed”. For the same substance, the dissociation constant (Kd) in test [1] (10 μM peptide) and in test [1] (+ 2 mM Mg^2+) was greater than 5000 µM in each case.
